Measured values taken from US10167262B2, “Herbicidal substituted 3-arylpyrazoles” (FMC CORPORATION, priority 2014, dated 2019).

Legend:
Assay type in all cases: in vivo
[1] = test system: barnyardgrass (Echinochloa crus-galli); assay: Test A pre-/postemergence greenhouse herbicide test, visual injury rating 0-100
Outline: (§1)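 Scale 0–100 (none to complete control), visual, versus untreated controls after approx. 10 greenhouse days. Pre: directed soil spray at planting. Post: 2–10 cm, one- to two-leaf plants. Non-phytotoxic solvent plus surfactant vehicle.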

[2] = test system: corn (Zea mays); assay: as above
Outline: as §1

[3] = test system: giant foxtail (Setaria faberii); assay: as above
Outline: as §1

[4] = test system: large (Lg) crabgrass (Digitaria sanguinalis); assay: as above
Outline: as §1

[5] = test system: morningglory (Ipomoea spp.); assay: as above
Outline: as §1

[6] = test system: pigweed (Amaranthus retroflexus); assay: as above
Outline: as §1

[7] = test system: velvetleaf (Abutilon theophrasti); assay: as above
Outline: as §1

[8] = test system: wheat (Triticum aestivum); assay: as above
Outline: as §1

[9] = test system: Italian ryegrass (Lolium multiflorum); assay: Test C pre-/postemergence greenhouse test, plant response rating 0-100; conditions: Postemergence; for Plant response rating, Ryegrass, Italian: 250 g ai/ha, scale 0 to 100
Outline: (§2)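 Visual 0–100 control scores, taken 13 to 15 days post-application in a greenhouse, reflect treatment preemergence (seed in loam soil with sand) or postemergence (2–18 cm plants in peat moss, vermiculite medium). A dash marks no result.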

[10] = test system: giant foxtail (Setaria faberii); assay: as above; conditions: Postemergence; for Plant response rating, Foxtail, Giant: 250 g ai/ha, scale 0 to 100
Outline: as §2

[11] = test system: soybean (Glycine max); assay: as above; conditions: Postemergence; for Plant response rating, Soybean: 250 g ai/ha, scale 0 to 100
Outline: as §2

[12] = test system: chickweed (common chickweed, Stellaria media); assay: Test C postemergence greenhouse test, plant response rating 0-100; conditions: for Plant response rating, Chickweed: 250 g ai/ha, scale 0 to 100
Outline: (§3)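 Potted in peat/vermiculite mix; postemergence application at 1–4 leaves (2–18 cm); greenhouse 13–15 d; visual score 0–100 relative to untreated plants; dash = no test result.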

[13] = test system: kochia (Kochia scoparia); assay: as above; conditions: for Plant response rating, Kochia: 250 g ai/ha, scale 0 to 100
Outline: as §3

[14] = test system: wild oat (Avena fatua); assay: as above; conditions: for Plant response rating, Oat, Wild: 250 g ai/ha, scale 0 to 100
Outline: as §3

## CCn1cc(C(=NN2CCCC2)c2ccccc2)c(-c2cc(Cl)cc(Cl)c2)n1 [Compound 37]
[1]; Postemergence, 125 g ai/ha
  Plant response rating (0 to 100 scale), Barnyardgrass: 0
[1]; Postemergence, 500 g ai/ha
  Plant response rating (0 to 100 scale), Barnyardgrass: 0
[1]; Preemergence, 125 g ai/ha
  Barnyardgrass plant response rating (0 = no effect, 100 = complete control): 0
[1]; Preemergence, 500 g ai/ha
  Plant response rating (0 to 100 scale), Barnyardgrass: 0
[2]; Postemergence, 125 g ai/ha
  Plant response rating (0 to 100 scale), Corn: 0
[2]; Postemergence, 500 g ai/ha
  Plant response rating (0 to 100 scale), Corn: 0
[2]; Preemergence, 125 g ai/ha
  Corn plant response rating (0 = no effect, 100 = complete control): 0
[2]; Preemergence, 500 g ai/ha
  Plant response rating (0 to 100 scale), Corn: 0
[3]; Postemergence, 125 g ai/ha
  Plant response rating (0 to 100 scale), Foxtail, Giant: 0
[3]; Postemergence, 500 g ai/ha
  Plant response rating (0 to 100 scale), Foxtail, Giant: 0
[3]; Preemergence, 125 g ai/ha
  Foxtail, Giant plant response rating (0 = no effect, 100 = complete control): 0
[3]; Preemergence, 500 g ai/ha
  Plant response rating (0 to 100 scale), Foxtail, Giant: 0
[4]; Postemergence, 125 g ai/ha
  Plant response rating (0 to 100 scale), Crabgrass, Large: 0
[4]; Postemergence, 500 g ai/ha
  Plant response rating (0 to 100 scale), Crabgrass, Large: 0
[4]; Preemergence, 125 g ai/ha
  Crabgrass, Large plant response rating (0 = no effect, 100 = complete control): 0
[4]; Preemergence, 500 g ai/ha
  Plant response rating (0 to 100 scale), Crabgrass, Large: 0
[5]; Postemergence, 125 g ai/ha
  Plant response rating (0 to 100 scale), Morningglory: 0
[5]; Postemergence, 500 g ai/ha
  Plant response rating (0 to 100 scale), Morningglory: 0
[5]; Preemergence, 125 g ai/ha
  Morningglory plant response rating (0 = no effect, 100 = complete control): 0
[5]; Preemergence, 500 g ai/ha
  Plant response rating (0 to 100 scale), Morningglory: 0
[6]; Postemergence, 125 g ai/ha
  Plant response rating (0 to 100 scale), Pigweed: 80
[6]; Postemergence, 500 g ai/ha
  Plant response rating (0 to 100 scale), Pigweed: 100
[6]; Preemergence, 125 g ai/ha
  Pigweed plant response rating (0 = no effect, 100 = complete control): 40
[6]; Preemergence, 500 g ai/ha
  Plant response rating (0 to 100 scale), Pigweed: 90
[7]; Postemergence, 125 g ai/ha
  Plant response rating (0 to 100 scale), Velvetleaf: 80
[7]; Postemergence, 500 g ai/ha
  Plant response rating (0 to 100 scale), Velvetleaf: 100
[7]; Preemergence, 125 g ai/ha
  Velvetleaf plant response rating (0 = no effect, 100 = complete control): 0
[7]; Preemergence, 500 g ai/ha
  Plant response rating (0 to 100 scale), Velvetleaf: 40
[8]; Postemergence, 125 g ai/ha
  Plant response rating (0 to 100 scale), Wheat: 0
[8]; Postemergence, 500 g ai/ha
  Plant response rating (0 to 100 scale), Wheat: 0
[8]; Preemergence, 125 g ai/ha
  Wheat plant response rating (0 = no effect, 100 = complete control): 0
[8]; Preemergence, 500 g ai/ha
  Plant response rating (0 to 100 scale), Wheat: 0
[9]; 62 g ai/ha
  Plant response rating (0 to 100), Ryegrass, Italian: 0
[9]; 125 g ai/ha
  Plant response rating (0 to 100), Ryegrass, Italian: 0
[9]
  Plant response rating, Ryegrass, Italian: 0
[10]; 31 g ai/ha
  Plant response rating (0 to 100), Foxtail, Giant: 0
[10]; 62 g ai/ha
  Plant response rating (0 to 100), Foxtail, Giant: 0
[10]; 125 g ai/ha
  Plant response rating (0 to 100), Foxtail, Giant: 25
[10]
  Plant response rating, Foxtail, Giant: 25
[11]; 62 g ai/ha
  Plant response rating (0 to 100), Soybean: 5
[11]; 125 g ai/ha
  Plant response rating (0 to 100), Soybean: 5
[11]
  Plant response rating, Soybean: 5
[12]; 31 g ai/ha
  Plant response rating (0 to 100), Chickweed: 70
[12]; 125 g ai/ha
  Plant response rating (0 to 100), Chickweed: 70
[12]
  Plant response rating, Chickweed: 75
[13]; 62 g ai/ha
  Plant response rating (0 to 100), Kochia: 15
[13]; 125 g ai/ha
  Plant response rating (0 to 100), Kochia: 15
[13]
  Plant response rating, Kochia: 35
[14]; 62 g ai/ha
  Plant response rating (0 to 100), Oat, Wild: 0
[14]; 125 g ai/ha
  Plant response rating (0 to 100), Oat, Wild: 0
[14]
  Plant response rating, Oat, Wild: 0

## CCn1cc(C(=O)c2ccccc2)c(-c2cc(Br)cc(Br)c2)n1 [Compound 38]
[1]; Postemergence, 1000 g ai/ha
  Plant response rating (0 to 100 scale), Barnyardgrass: 0
[1]; Preemergence, 1000 g ai/ha
  Plant response rating (0 to 100 scale), Barnyardgrass: 0
[2]; Postemergence, 1000 g ai/ha
  Plant response rating (0 to 100 scale), Corn: 0
[2]; Preemergence, 1000 g ai/ha
  Plant response rating (0 to 100 scale), Corn: 0
[3]; Postemergence, 1000 g ai/ha
  Plant response rating (0 to 100 scale), Foxtail, Giant: 0
[3]; Preemergence, 1000 g ai/ha
  Plant response rating (0 to 100 scale), Foxtail, Giant: 0
[4]; Postemergence, 1000 g ai/ha
  Plant response rating (0 to 100 scale), Crabgrass, Large: 0
[4]; Preemergence, 1000 g ai/ha
  Plant response rating (0 to 100 scale), Crabgrass, Large: 0
[5]; Preemergence, 1000 g ai/ha
  Plant response rating (0 to 100 scale), Morningglory: 0
[6]; Postemergence, 1000 g ai/ha
  Plant response rating (0 to 100 scale), Pigweed: 100
[6]; Preemergence, 1000 g ai/ha
  Plant response rating (0 to 100 scale), Pigweed: 90
[7]; Postemergence, 1000 g ai/ha
  Plant response rating (0 to 100 scale), Velvetleaf: 90
[7]; Preemergence, 1000 g ai/ha
  Plant response rating (0 to 100 scale), Velvetleaf: 80
[8]; Postemergence, 1000 g ai/ha
  Plant response rating (0 to 100 scale), Wheat: 0
[8]; Preemergence, 1000 g ai/ha
  Plant response rating (0 to 100 scale), Wheat: 0
[9]; 62 g ai/ha
  Plant response rating (0 to 100), Ryegrass, Italian: 0
[9]; 125 g ai/ha
  Plant response rating (0 to 100), Ryegrass, Italian: 0
[9]
  Plant response rating, Ryegrass, Italian: 0
[10]; 31 g ai/ha
  Plant response rating (0 to 100), Foxtail, Giant: 0
[10]; 62 g ai/ha
  Plant response rating (0 to 100), Foxtail, Giant: 0
[10]; 125 g ai/ha
  Plant response rating (0 to 100), Foxtail, Giant: 0
[10]
  Plant response rating, Foxtail, Giant: 0
[11]; 62 g ai/ha
  Plant response rating (0 to 100), Soybean: 0
[11]; 125 g ai/ha
  Plant response rating (0 to 100), Soybean: 0
[11]
  Plant response rating, Soybean: 0
[12]; 31 g ai/ha
  Plant response rating (0 to 100), Chickweed: 20
[12]; 62 g ai/ha
  Plant response rating (0 to 100), Chickweed: 50
[12]; 125 g ai/ha
  Plant response rating (0 to 100), Chickweed: 60
[12]
  Plant response rating, Chickweed: 100
[13]; 62 g ai/ha
  Plant response rating (0 to 100), Kochia: 35
[13]
  Plant response rating, Kochia: 50
[14]; 62 g ai/ha
  Plant response rating (0 to 100), Oat, Wild: 0
[14]; 125 g ai/ha
  Plant response rating (0 to 100), Oat, Wild: 0
[14]
  Plant response rating, Oat, Wild: 0
